“And” between values parts separate entries of the source, which are not always exact repeats. Equal values may be shown once. “Also recorded” adds a separate entry of the source.
Assays:
Format in all cases: in vivo, albino C57BL/6 mice
[1] = Post mortem tissue Gd content by ICP-MS; details: ACPPD-Gd 24 h post, gadobutrol at equilibrium phase
Description: Mice were sacrificed immediately after the 14-day MRI study and tumors, liver, kidneys, and muscle were harvested and immediately frozen at -20°C for later analysis. Tissue Gd content was measured using inductively coupled plasma-mass spectrometry (ICP-MS) on defrosted and weighted tissues. Less than 100mg samples of each tissue were placed in 900uL of nitric acid on a Gyromixer overnight at room temperature. The next day, 200μL of 30% hydrogen peroxide were added, and after 2 hours the samples were heated to 90–100°C for 2 hours. Tuning solution was then added to a 5mL total volume. Samples were then run in an Agilent Technologies 7700 Series ICP-MS to measure gadolinium content in parts-per-billion. Tissue Gd concentration in micromolar was calculated as (ppb of Gd/Gd molecular weight)*(total weight of solution measured/tissue wet weight).

Py8119 mammary tumor [2] = assay: Blinded reader tumor detection on 3T MRI (ROC/AUC, inter-observer kappa); details: for AUC (95%CI) of ROC curve for tumor presence, Reader 1 (experienced), all tumors (n = 107) / AUC (95%CI) of ROC curve for tumor presence, Reader 2 (trainee), all tumors (n = 107): 288 breasts, ACPPD-Gd 24 h post, gadobutrol 2–3 min post; for AUC (95%CI) of ROC curve for tumor presence, Reader 1 (experienced), tumors <5mm^3 (n = 58) / AUC (95%CI) of ROC curve for tumor presence, Reader 2 (trainee), tumors <5mm^3 (n = 58): obvious tumors (>5mm^3) removed
Excerpt: The acquired 72 studies (3 groups x 8 mice x 3 time points) with 4 pulsing sequences each were anonymized and presented at random to 2 observers blinded to contrast grouping, time since inoculation, and which 2 nipples were inoculated with tumor. Reader 1 is an MR expert with extensive experience in clinical and animal MR image interpretation (RFM) and Reader 2 is a 2nd-year radiology resident in training (ESO). Studies were reviewed independently and readers reported whether the breast tissue under each of the 4 nipples in each study was normal or contained tumor along with their confidence level as low, medium, or high. If a tumor was present they described the degree and pattern of tumor enhancement.
Receiver operating characteristic (ROC) curves were constructed using 4 levels: normal, low, medium and high probability for tumor presence. There were 288 breasts evaluated (3 groups x 8 animals x 3 time-points x 4 breasts). […] Additional ROC curves were constructed for tumors <5mm^3 to assess the potential benefit of ACPPD-Gd in detecting small tumors. Interobserver agreement was assessed for all 288 breasts and within each of the 3 contrast groups using the kappa statistic. Area under the ROC curve (AUC) was calculated for the 3 contrast groups using the JROC web-based program.

Py8119 mammary tumor [3] = assay: T1-weighted MR tumor enhancement at 3T in mice with mammary fat pad tumors
Excerpt: The University of California San Diego Institutional Animal Care and Use Committee (IACUC) approved this research under protocol S04011. All steps were ensured to minimize pain and suffering of all animals during the course of this experiment. Anesthesia during tumor inoculation and MR imaging was isoflurane/O2. All animals were given free access to food and water ad libitum during the entire study. Euthanasia involved CO2 asphyxiation followed by cervical dislocation. Each of the 4 inguinal nipples of 16 albino C57BL/6 (Harlan Labs) mice were randomized such that each mouse had 2 mammary fat pads inoculated with 10^4 Py8119 mammary tumor cells and the other 2 with an equal volume of saline. […]
All mice were imaged on days 4, 9, and 14 after inoculation under isoflurane/O2 anesthesia. […] Optimal ACPPD-Gd dose and imaging time were previously determined. […]
Tumor signal and size were quantified at each time point using region-of-interest (ROI) analysis with OsiriX software (Pixmeo, Geneva). […] Tumors <1mm^3 were not analyzed because of unreliable ROI placement and partial volume effects. A polygonal ROI was traced around the tumor on the fat-saturated T1-weighted axial sequence at its maximal dimension and the average signal and cross-sectional area recorded. […] Tumor volume was calculated using an ellipsoid function as 4/3*(area of tumor ROI)*(1/2)*(maximal orthogonal coronal diameter). […]

Question: Which “Gd biodistribution: organ of dominant accumulation” value ([1]; ICP-MS of tumors, liver, kidneys, muscle) does the source give for O=C([O-])CN1CCN(CC(=O)[O-])CCN([C@H](CO)[C@H](O)CO)CCN(CC(=O)[O-])CC1.[Gd+3] (racemic) [gadobutrol, Gd-DO3A-butrol] here?
Answer: the majority of Gd was in the kidneys

Question: What about the “Tumor to muscle Gd concentration ratio” value ([1]; ICP-MS, 14 days after inoculation, mean±SD) of the same compound?
Answer: 2.7 ± 1.0

Question: And the “AUC (95%CI) of ROC curve for tumor presence, Reader 1 (experienced), all tumors (n = 107)” value (Py8119 mammary tumor [2])?
Answer: 0.91 and 0.92

Question: What about the “AUC (95%CI) of ROC curve for tumor presence, Reader 2 (trainee), all tumors (n = 107)” value (Py8119 mammary tumor [2]) of the same compound?
Answer: 0.81

Question: And the “AUC (95%CI) of ROC curve for tumor presence, Reader 1 (experienced), all tumors (n = 107)” value (Py8119 mammary tumor [2]; listed as Gadobutrol)?
Answer: 0.92 (0.86, 0.98)

Question: And the “AUC (95%CI) of ROC curve for tumor presence, Reader 2 (trainee), all tumors (n = 107)” value (Py8119 mammary tumor [2]; listed as Gadobutrol)?
Answer: 0.81 (0.73, 0.90)

Question: And the “AUC (95%CI) of ROC curve for tumor presence, Reader 1 (experienced), tumors <5mm^3 (n = 58)” value (Py8119 mammary tumor [2])?
Answer: 0.86

Question: And the “AUC (95%CI) of ROC curve for tumor presence, Reader 2 (trainee), tumors <5mm^3 (n = 58)” value (Py8119 mammary tumor [2])?
Answer: 0.69

Question: What about the “AUC (95%CI) of ROC curve for tumor presence, Reader 1 (experienced), tumors <5mm^3 (n = 58)” value (Py8119 mammary tumor [2]; listed as Gadobutrol) of the same compound?
Answer: 0.86 (0.75, 0.96)

Question: And the “AUC (95%CI) of ROC curve for tumor presence, Reader 2 (trainee), tumors <5mm^3 (n = 58)” value (Py8119 mammary tumor [2]; listed as Gadobutrol)?
Answer: 0.69 (0.57, 0.81)

Question: What about the “Pattern of tumor enhancement” value (Py8119 mammary tumor [3]; 3T axial fat-saturated T1w images) of the same compound?
Answer: more apparent at the tumor periphery; also recorded: enhanced predominantly the tumor rim

Question: What about the “T1w tumor enhancement, small tumors (1-5mm^3)” value (Py8119 mammary tumor [3]; 3T, ACPPD-Gd 24 h after 0.036 mmol Gd/kg, gadobutrol 2–3 min after 0.1 mmol/kg, mean±SD, p = 0.03) of the same compound?
Answer: 19±18%

— paper PMC4559389, “Tumor Detection at 3 Tesla with an Activatable Cell Penetrating Peptide Dendrimer (ACPPD-Gd), a T1 Magnetic Resonance (MR) Molecular Imaging Agent” (PLoS ONE, 2015)
